# Data: patent publication US7820646B2, “Cyclized derivatives as Eg-5 inhibitors” (Novartis Vaccines and Diagnostics, Inc., priority 2007, dated 2010)
# Legend:
# [1] = molecular target: T1, motor domain of human KSP (Eg 5, KNSL1) (Homo sapiens, UniProt P52732); test: Assay for determining KSP activity (microtubule-stimulated ATPase, Biomol Green); conditions: KSP motor domain 45 nM, microtubules 35 μg/mL, 1 hour at RT; read-out: Biochemical Activity IC50
# T1 construct: KSP motor protein (i.e., the KSP motor domain); made in house
# T1 sequence (P52732 18-359 limits assumed): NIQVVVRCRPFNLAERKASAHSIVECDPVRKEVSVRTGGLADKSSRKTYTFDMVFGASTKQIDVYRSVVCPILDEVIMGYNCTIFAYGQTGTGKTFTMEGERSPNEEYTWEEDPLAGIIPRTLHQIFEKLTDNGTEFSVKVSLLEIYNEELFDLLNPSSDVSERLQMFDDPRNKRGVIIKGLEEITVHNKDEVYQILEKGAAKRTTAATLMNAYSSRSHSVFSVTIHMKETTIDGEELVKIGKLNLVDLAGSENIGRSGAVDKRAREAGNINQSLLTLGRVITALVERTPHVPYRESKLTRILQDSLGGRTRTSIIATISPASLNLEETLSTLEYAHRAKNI
# Source text: This example provides a representative in vitro assay for determining KSP activity in vitro. Purified microtubules obtained from bovine brain were purchased from Cytoskeleton Inc. (Denver, Colo., USA). The motor domain of human KSP (Eg 5, KNSL1) was cloned, expressed, and purified to greater than 95% homogeneity. Biomol Green was purchased from Affinity Research Products Ltd. (Matford Court, Exeter, Devon, United Kingdom). Microtubules and KSP motor protein (i.e., the KSP motor domain) were diluted in assay buffer (20 mM Tris-HCl (pH 7.5), 1 mM MgCl2, 10 mM DTT and 0.25 mg/mL BSA) to a final concentration of 35 μg/mL microtubules and 45 nM KSP. The microtubule/KSP mixture was then pre-incubated at 37° C. for 10 min to promote the binding of KSP to microtubules.
# To each well of the testing plate (384-well plate) containing 1.25 μL of inhibitor or test compound in DMSO (or DMSO only in the case of controls) were added 25 μL of ATP solution (ATP diluted to a concentration of 300 μM in assay buffer) and 25 μL of the above-described microtubule/KSP solution. The plates were incubated at RT for 1 hour. Following incubation, 65 μL of Biomol Green (a malachite green-based dye that detects the release of inorganic phosphate) was added to each well. The plates were incubated for an additional 5-10 minutes then the absorbance at 630 nm was determined using a Victor II plate reader. The amount of absorbance at 630 nm corresponded to the amount of KSP activity in the samples. The IC50 of each inhibitor or test compound was then determined based on the decrease in absorbance at 630 nm at each concentration, via nonlinear regression using either XLFit for Excel or Prism data analysis software by GraphPad Software Inc.
# [2] = system: KB8.5 (KB85 - p-glycoprotein associated multi-drug resistant cell line); test: Inhibition of cellular proliferation in tumor cell lines (CellTiter Glo), KB8.5; assay type: cell-based; conditions: KB8.5, 72 hours of continuous compound exposure; read-out: Cell Base Activity GI50 KB8.5
# Protocol: (§1) Cells are plated in 96-well plates at densities of about 500 cells per well of a 96-well plate and are allowed to grow for 24 hours. The cells are then treated with various concentrations of compounds for 72 hours. Then, 100 μl of CellTiter Glo is added. CellTiter Glo is a tetrazolium-based assay using the reagent 3-(4,5-dimethylthiazol-2-yl) 5-(3-carboxymethoxyphenyl)-2-(4-sulfophenyl)-2H-tetrazolium (MTS) (U.S. Pat. No. 5,185,450) (see Promega product catalog #G3580, CellTiter 96 Aqueous One Solution Cell Proliferation Assay). The cells are then incubated in the dark for 30 minutes. The amount of luminescence is determined for each well using a Walloc Trilux plate reader, which correlates with the number of cells per well. The number of viable cells in the wells that receive only DMSO (0.5%) serve as an indication of 0% inhibition, while wells without cells serve as 100% inhibition of cell growth. The compound concentration that results in a 50% growth inhibition (GI50) is determined graphically from sigmoidal dose-response curves of log-transformed dose values versus cell counts (percent of control) at 72 hours of continuous compound exposure.
# (§2) The cell lines used are listed below.
# (§3) The cell proliferation assay is performed as described above.
# HCT-15 colon carcinoma = test: Inhibition of cellular proliferation in tumor cell lines (CellTiter Glo), HCT-15; assay type: cell-based; conditions: Homo sapiens; HCT-15, 72 hours of continuous compound exposure; read-out: Cell Base Activity GI50 HCT-15
# Protocol: as §1, §2, §3
# parental cell line = test: Inhibition of cellular proliferation in tumor cell lines (CellTiter Glo), KB3.1; assay type: cell-based; conditions: Homo sapiens, KB 3-1; KB3.1, 72 hours of continuous compound exposure; read-out: Cell Base Activity GI50 KB3.1
# Protocol: as §1, §2, §3
# HCT-116 colon carcinoma = test: Inhibition of cellular proliferation in tumor cell lines (CellTiter Glo), HCT-116; assay type: cell-based; conditions: Homo sapiens; HCT-116, 72 hours of continuous compound exposure; read-out: Cell Base Activity GI50 HCT-116
# Protocol: as §1, §2, §3
Structure (SMILES),IC50 [1] [nM],GI50 [2] [nM],GI50 (HCT-15 colon carcinoma) [nM],GI50 (HCT-116 colon carcinoma) [nM],GI50 (parental cell line) [nM]
"CC(C)(C)[C@H](c1nc(-c2ccccc2)cn1Cc1ccccc1)N1C[C@H](CN)OCC1=O [Compound 6, (6S)-6-(aminomethyl)-4-[(1R)-1-(1-benzyl-4-phenyl-1H-imidazol-2-yl)-2,2-dimethylpropyl]morpholin-3-one]",100 to 1000,> 1000,> 1000,100 to 1000,100 to 1000
"CC(C)(C)[C@H](c1nc(-c2ccccc2)cn1Cc1ccccc1)N1CC(CCN)OC1=O (stereo in doubt) [Compound 1, (5R)-5-(2-aminoethyl)-3-[(1R)-1-(1-benzyl-4-phenyl-1H-imidazol-2-yl)-2,2-dimethylpropyl]-1,3-oxazolidin-2-one]",100 to 1000,> 1000,> 1000,100 to 1000,100 to 1000
"CC(C)[C@H](c1nc(-c2cccc(Cl)c2)cn1Cc1ccccc1)N1C[C@H](CN)OCC1=O [Compound 9, (6S)-6-(aminomethyl)-4-{(1R)-1-[1-benzyl-4-(3-chlorophenyl)-1H-imidazol-2-yl]-2-methylpropyl}morpholin-3-one]",> 1000,> 1000,100 to 1000,100 to 1000,100 to 1000
"C[C@H]1O[C@H](CN)CN([C@@H](c2nc(-c3cccc(F)c3)cn2Cc2ccccc2)C(C)(C)C)C1=O [Compound 15, (2R,6R)-6-(aminomethyl)-4-{(1R)-1-[1-benzyl-4-(3-fluorophenyl)-1H-imidazol-2-yl]-2,2-dimethylpropyl}-2-methylmorpholin-3-one]",100 to 1000,> 1000,> 1000,> 1000,> 1000
"CC(C)(C)[C@H](c1nc(-c2ccccc2)cn1Cc1ccccc1)N1C[C@@H](CN)OCCC1=O [Compound 23, (2R)-2-(aminomethyl)-4-[(1R)-1-(1-benzyl-4-phenyl-1H-imidazol-2-yl)-2,2-dimethylpropyl]-1,4-oxazepan-5-one]",100 to 1000,100 to 1000,> 1000,100 to 1000,> 1000

# More lines, main results first:
IC50 [1] [nM],GI50 [2] [nM],GI50 (HCT-15 colon carcinoma) [nM],GI50 (HCT-116 colon carcinoma) [nM],Structure (SMILES),GI50 (parental cell line) [nM]
≤ 100,> 1000,> 1000,> 1000,"CC(C)(C)[C@H](c1nc(-c2ccccc2)cn1Cc1ccccc1)N1C[C@H](CN)NC(=O)C1=O [Compound 17, (5S)-5-(aminomethyl)-1-[(1R)-1-(1-benzyl-4-phenyl-1H-imidazol-2-yl)-2,2-dimethylpropyl]piperazine-2,3-dione]",> 1000
≤ 100,100 to 1000,100 to 1000,100 to 1000,"CC(C)(C)[C@H](c1nc(-c2ccccc2)cn1Cc1ccccc1)N1C[C@@H](CN)OCC1=O [Compound 7, (6R)-6-(aminomethyl)-4-[(1R)-1-(1-benzyl-4-phenyl-1H-imidazol-2-yl)-2,2-dimethylpropyl]morpholin-3-one]",100 to 1000
≤ 100,≤ 100,≤ 100,≤ 100,"CC(C)(C)[C@H](c1nc(-c2cccc(F)c2)cn1Cc1cccc(F)c1)N1C[C@@H](CN)COCC1=O [Compound 28, (6R)-6-(aminomethyl)-4-{(1R)-1-[1-(3-fluorobenzyl)-4-(3-fluorophenyl)-1H-imidazol-2-yl]-2,2-dimethylpropyl}-1,4-oxazepan-3-one]",≤ 100
≤ 100,100 to 1000,100 to 1000,100 to 1000,"CC(C)(C)[C@H](c1nc(-c2cccc(F)c2)cn1Cc1cccc(F)c1)N1C[C@H](CN)COCC1=O [Compound 29, (6S)-6-(aminomethyl)-4-{(1R)-1-[1-(3-fluorobenzyl)-4-(3-fluorophenyl)-1H-imidazol-2-yl]-2,2-dimethylpropyl}-1,4-oxazepan-3-one]",100 to 1000
≤ 100,> 1000,100 to 1000,100 to 1000,"CN1C(=O)C(=O)N([C@@H](c2nc(-c3ccccc3)cn2Cc2ccccc2)C(C)(C)C)C[C@H]1CN [Compound 18, (5R)-5-(aminomethyl)-1-[(1R)-1-(1-benzyl-4-phenyl-1H-imidazol-2-yl)-2,2-dimethylpropyl]-4-methylpiperazine-2,3-dione]",100 to 1000
≤ 100,≤ 100,100 to 1000,≤ 100,"CC(C)(C)[C@H](c1nc(-c2cccc(F)c2)cn1Cc1ccccc1)N1C[C@@H](CN)COCC1=O [Compound 27, (6R)-6-(aminomethyl)-4-{(1R)-1-[1-benzyl-4-(3-fluorophenyl)-1H-imidazol-2-yl]-2,2-dimethylpropyl}-1,4-oxazepan-3-one]",≤ 100
